Data published in ChEMBL document CHEMBL1201862, “PubChem BioAssay data set” (2004).
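Compound exposure: 48 hours, 5 concentrations, 96-well plates. Here, GI50 denotes the concentration required for 50% inhibition of growth.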 The source made the active and inactive calls. Rule as the data show it: active = GI50 up to about 1.1 µM and inactive = higher.

Columns and labels:
Test in all cases: inhibition of tumour cell growth, NCI panel, 48 h
CAKI-1 = tested on: CAKI-1
HOP-92 = tested on: HOP-92
SF-295 = tested on: SF-295
NCI/ADR-RES = tested on: NCI/ADR-RES
NCI-H522 = tested on: NCI-H522
HT-29 = tested on: HT-29
LOX IMVI = tested on: LOX IMVI
MDA-MB-435 = tested on: MDA-MB-435
COLO 205 = tested on: COLO 205
IGROV-1 = tested on: IGROV-1
SK-MEL-2 = tested on: SK-MEL-2
DU-145 = tested on: DU-145
T47D = tested on: T47D
SNB-75 = tested on: SNB-75
MDA-MB-231 = tested on: MDA-MB-231
Hs-578T = tested on: Hs-578T
KM12 = tested on: KM12
HOP-62 = tested on: HOP-62
M14 = tested on: M14
HCC 2998 = tested on: HCC 2998

| SMILES | GI50 (CAKI-1) | GI50 (HOP-92) | GI50 (SF-295) | GI50 (NCI/ADR-RES) | GI50 (NCI-H522) | GI50 (HT-29) | GI50 (LOX IMVI) | GI50 (MDA-MB-435) | GI50 (COLO 205) | GI50 (IGROV-1) | GI50 (SK-MEL-2) | GI50 (DU-145) | GI50 (T47D) | GI50 (SNB-75) | GI50 (MDA-MB-231) | GI50 (Hs-578T) | GI50 (KM12) | GI50 (HOP-62) | GI50 (M14) | GI50 (HCC 2998) |
| --- | --- | --- | --- | --- | --- | --- | --- | --- | --- | --- | --- | --- | --- | --- | --- | --- | --- | --- | --- | --- |
| CCOC(=O)c1cc(C2=C(S)N(CC(C)CC)CC2)c(C(=O)CC)[nH]1 (stereo unspecified) | 12.9 µM (inactive) | 19.7 µM (inactive) | 18.2 µM (inactive) | 29.5 µM (inactive) | 14.9 µM (inactive) | 22.4 µM (inactive) | 17.4 µM (inactive) | 15.5 µM (inactive) | 11 µM (inactive) | 20.3 µM (inactive) | 22.1 µM (inactive) | 16.6 µM (inactive) | 7.53 µM (inactive) | 19.7 µM (inactive) | 15.6 µM (inactive) | 26.9 µM (inactive) | 16.9 µM (inactive) | – | – | – |
| Cc1ccc(Nc2nc(C)c(C(=O)CC(=O)C(=O)Nc3ccc(Cl)cc3)s2)cc1 | > 100 µM (inactive) | > 100 µM (inactive) | > 100 µM (inactive) | – | > 100 µM (inactive) | – | > 100 µM (inactive) | > 100 µM (inactive) | > 100 µM (inactive) | > 100 µM (inactive) | > 100 µM (inactive) | > 100 µM (inactive) | > 100 µM (inactive) | 30.9 µM (inactive) | 56.5 µM (inactive) | > 100 µM (inactive) | > 100 µM (inactive) | > 100 µM (inactive) | > 100 µM (inactive) | > 100 µM (inactive) |
| O=C(c1ccccc1)c1ccc2[nH]c(-c3c(Cl)c(Cl)c(Cl)c(Cl)c3-c3nnc(-c4ccccc4)o3)nc2c1 | 40.4 µM (inactive) | 35.7 µM (inactive) | 14.1 µM (inactive) | 13.2 µM (inactive) | 6.28 µM (inactive) | 31.3 µM (inactive) | 39.4 µM (inactive) | 3.51 µM (inactive) | 18.3 µM (inactive) | 29.5 µM (inactive) | 20 µM (inactive) | 70.5 µM (inactive) | 23.9 µM (inactive) | 8.81 µM (inactive) | 25.4 µM (inactive) | 27.4 µM (inactive) | 22.3 µM (inactive) | 25.8 µM (inactive) | 28.2 µM (inactive) | – |
| CC1(O)Oc2ccc3ccccc3c2C=C1C(N)=O (stereo unspecified) | 80.5 µM (inactive) | 77.1 µM (inactive) | > 100 µM (inactive) | – | – | – | > 100 µM (inactive) | > 100 µM (inactive) | > 100 µM (inactive) | 79.8 µM (inactive) | 40.4 µM (inactive) | > 100 µM (inactive) | 36.6 µM (inactive) | 52 µM (inactive) | 38.9 µM (inactive) | > 100 µM (inactive) | > 100 µM (inactive) | 36.7 µM (inactive) | 66.4 µM (inactive) | > 100 µM (inactive) |
| Cc1cc2c(cc1-c1cc3c(cc1C)C(C(C)C)=C(O)C(=O)/C3=C\Nc1c3ccccc3nc3ccccc13)/C(=C/Nc1c3ccccc3nc3ccccc13)C(=O)C(O)=C2C(C)C | 3.03 µM (inactive) | 5.73 µM (inactive) | 2.31 µM (inactive) | 2.59 µM (inactive) | 1.13 µM (inactive) | 1.54 µM (inactive) | – | 4.6 µM (inactive) | 1.99 µM (inactive) | 2.64 µM (inactive) | 5.58 µM (inactive) | 6.3 µM (inactive) | 6.17 µM (inactive) | 2.32 µM (inactive) | 4.55 µM (inactive) | 3.77 µM (inactive) | 3.09 µM (inactive) | 4.26 µM (inactive) | 2.67 µM (inactive) | – |
| Nn1c(Cc2ccccc2)n[nH]c1=O | > 100 µM (inactive) | – | > 100 µM (inactive) | > 100 µM (inactive) | > 100 µM (inactive) | > 100 µM (inactive) | > 100 µM (inactive) | > 100 µM (inactive) | > 100 µM (inactive) | > 100 µM (inactive) | > 100 µM (inactive) | > 100 µM (inactive) | > 100 µM (inactive) | > 100 µM (inactive) | > 100 µM (inactive) | > 100 µM (inactive) | > 100 µM (inactive) | > 100 µM (inactive) | > 100 µM (inactive) | > 100 µM (inactive) |
| CCN(CC)c1ccc(C2Nc3ccc4ccccc4c3C3=C2C(=O)CCC3)cc1 (stereo unspecified) | 33.7 µM (inactive) | – | 24.6 µM (inactive) | 26.6 µM (inactive) | – | 55.7 µM (inactive) | – | 54.6 µM (inactive) | > 100 µM (inactive) | – | 35.5 µM (inactive) | 23.9 µM (inactive) | 39 µM (inactive) | 17.3 µM (inactive) | 11.7 µM (inactive) | 11.2 µM (inactive) | > 100 µM (inactive) | 20.4 µM (inactive) | > 100 µM (inactive) | > 100 µM (inactive) |
| CCOC(=O)C1(Cc2ccccc2)Cc2cc3c(cc2C1)CCC3 | 39.5 µM (inactive) | – | 29.4 µM (inactive) | 48.1 µM (inactive) | 30.3 µM (inactive) | 18.4 µM (inactive) | 18.8 µM (inactive) | 30.2 µM (inactive) | 19.3 µM (inactive) | 39 µM (inactive) | 12.8 µM (inactive) | 44.6 µM (inactive) | 26.7 µM (inactive) | > 10 µM (inactive) | 30.4 µM (inactive) | 22.3 µM (inactive) | 31.9 µM (inactive) | 37.2 µM (inactive) | 29.5 µM (inactive) | 21.4 µM (inactive) |
| CN1CCC2(c3ccccc3)CC(=O)/C(=C/c3ccc(Cl)c(Cl)c3)C1C2.[O-][Cl+3]([O-])([O-])O (stereo unspecified) | 3.94 µM (inactive) | 2.31 µM (inactive) | 2.43 µM (inactive) | 2.78 µM (inactive) | 1.84 µM (inactive) | 1.95 µM (inactive) | 1.71 µM (inactive) | 2.11 µM (inactive) | 1.95 µM (inactive) | 1.95 µM (inactive) | 3.74 µM (inactive) | 3.25 µM (inactive) | 4.7 µM (inactive) | 3.41 µM (inactive) | 1.69 µM (inactive) | 4.47 µM (inactive) | 1.94 µM (inactive) | 3.37 µM (inactive) | 2.96 µM (inactive) | – |
| CNC(=S)NN=C1NCCCCN1 | 29.2 µM (inactive) | > 100 µM (inactive) | > 100 µM (inactive) | > 100 µM (inactive) | > 100 µM (inactive) | > 100 µM (inactive) | > 100 µM (inactive) | > 100 µM (inactive) | > 100 µM (inactive) | > 100 µM (inactive) | > 100 µM (inactive) | – | > 100 µM (inactive) | > 100 µM (inactive) | > 100 µM (inactive) | 83.9 µM (inactive) | > 100 µM (inactive) | > 100 µM (inactive) | > 100 µM (inactive) | > 100 µM (inactive) |
| CC1(C)CC(=O)c2c(nc3ccc4ccccc4c3c2-c2ccc(NC(=O)CCCCC(=O)Nc3ccc(-c4c5c(nc6ccc7ccccc7c46)CC(C)(C)CC5=O)cc3)cc2)C1 | > 100 µM (inactive) | > 100 µM (inactive) | > 100 µM (inactive) | > 100 µM (inactive) | – | > 100 µM (inactive) | > 100 µM (inactive) | > 100 µM (inactive) | > 100 µM (inactive) | > 100 µM (inactive) | > 100 µM (inactive) | > 100 µM (inactive) | > 100 µM (inactive) | > 100 µM (inactive) | > 100 µM (inactive) | > 100 µM (inactive) | > 100 µM (inactive) | > 100 µM (inactive) | > 100 µM (inactive) | – |
| NNC(=O)c1ccccc1Nc1ccccc1C(=O)NN | > 100 µM (inactive) | – | > 100 µM (inactive) | > 100 µM (inactive) | > 100 µM (inactive) | > 100 µM (inactive) | > 100 µM (inactive) | > 100 µM (inactive) | > 100 µM (inactive) | > 100 µM (inactive) | > 100 µM (inactive) | > 100 µM (inactive) | > 100 µM (inactive) | > 100 µM (inactive) | > 100 µM (inactive) | 92.9 µM (inactive) | > 100 µM (inactive) | > 100 µM (inactive) | > 100 µM (inactive) | > 100 µM (inactive) |
| C=C(C)C12CC(COC(=O)c3ccccc3)C34OC5(OC1C3C1OC1(CO)C(O)C1(O)C(OC(=O)c3ccccc3)C(C)C(C(C)CCCCCCC5O)C14)O2 (stereo unspecified) | 56.5 µM (inactive) | > 100 µM (inactive) | 31.2 µM (inactive) | 42.4 µM (inactive) | 46.5 µM (inactive) | 19.5 µM (inactive) | 66.5 µM (inactive) | – | < 0.01 µM (active) | > 72.8 µM (inactive) | > 100 µM (inactive) | 53.8 µM (inactive) | > 87.9 µM (inactive) | > 82.8 µM (inactive) | > 78.2 µM (inactive) | 26.5 µM (inactive) | 40.8 µM (inactive) | – | 27.2 µM (inactive) | < 0.01 µM (active) |
| NS(=O)(=O)c1cccc(NC(=S)NC(=O)Nc2ccc(Cl)c(Cl)c2)c1 | – | 24 µM (inactive) | 22.6 µM (inactive) | 15.9 µM (inactive) | 12.8 µM (inactive) | 25.9 µM (inactive) | 16.7 µM (inactive) | – | 20 µM (inactive) | 20 µM (inactive) | 23.2 µM (inactive) | 30.1 µM (inactive) | 18.1 µM (inactive) | 18.3 µM (inactive) | 17.7 µM (inactive) | 17 µM (inactive) | 15.8 µM (inactive) | 15.5 µM (inactive) | 14.2 µM (inactive) | – |
| Cc1cc(C)c2c(c1)C1=NCCN1C2(O)c1ccc(Cl)cc1 (stereo unspecified) | 15.1 µM (inactive) | 7.35 µM (inactive) | 15.7 µM (inactive) | 14.4 µM (inactive) | – | 16.5 µM (inactive) | 29.3 µM (inactive) | 16.7 µM (inactive) | 15.1 µM (inactive) | 14.2 µM (inactive) | 18.5 µM (inactive) | 19.5 µM (inactive) | 16.4 µM (inactive) | 12.3 µM (inactive) | 14.6 µM (inactive) | 16.4 µM (inactive) | 15.3 µM (inactive) | 15.2 µM (inactive) | 14.5 µM (inactive) | – |
